ChEMBL document CHEMBL4513101, “Naegleria gruberi Pathogen Box compounds screening” (2021)
Activity calls are given as the source filed them. No stated cut-off is given here; in the data, active = inhibition of 80% or more and inactive = less.

System: Naegleria gruberi
Test: microbe, parasite or virus in culture
Assay type: functional
Conditions: NEG-M, CONC 10 uM
Description: Growth inhibiting activity of Naegleria gruberi in vitro

SMILES	inhibition at 10 µM
CCc1nc2ccc(Cl)cn2c1C(=O)NCc1ccc(N2CCC(c3ccc(OC(F)(F)F)cc3)CC2)cc1 [TELACEBEC]	42.4% (not active)
FC(F)(F)c1ccc(N(c2cccnc2)C2CCN(c3ccc(C(F)(F)F)cn3)CC2)cc1	80.4% (active)
CN1CCCN(C(c2ccccc2)c2ccc(Cl)cc2)CC1 (stereo not drawn) [HOMOCHLORCYCLIZINE]	11.6% (not active)
CC(C)(C)OC(=O)N1CCC(Cn2nc(-c3cnc4ccccc4c3)c3c(N)ncnc32)CC1	57.8% (not active)
FC(F)(F)c1nnc2ccc(Cl)nn12	16.8% (not active)
O=C(C1CCN(c2cc(-n3cccc3)ncn2)CC1)N1CCc2ccccc2C1	13.5% (not active)
Nc1ncnc2[nH]nc(Cc3cccc4ccccc34)c12	24% (not active)
CCC(Sc1nc2ccccc2o1)C(=O)Nc1nccs1 (stereo not drawn)	44.3% (not active)
CNC1C(OC2C(OC3C(O)C(O)C(N=C(N)N)C(O)C3N=C(N)N)OC(C)C2(O)C=O)OC(CO)C(O)C1O (stereo not drawn)	0% (not active)
COc1ccc(CCN2CCC(NCc3cccc(N(C)C)c3)CC2)cc1	8.7% (not active)
COc1ccc(OC(C)C(=O)Nc2ccc(Cl)cc2C)cc1 (stereo not drawn)	34% (not active)
NS(=O)(=O)c1cncc(-c2ccc3nccc(-c4cn[nH]c4)c3n2)c1	0% (not active)
CN(C(=O)c1cc2c(-c3cncnc3)cccc2[nH]1)c1ccccc1	27.7% (not active)
Clc1cccc(C(c2ccc(CN3CCNCC3)cc2)n2ccnc2)c1 (stereo not drawn)	20.3% (not active)
c1ccc(Oc2ccc(-c3cncc(-c4ccc5[nH]ccc5c4)n3)cc2)cc1	11.4% (not active)
c1cc(C2=NCCN2)cc(-c2cc(-c3ccc(C4=NCCN4)cc3)no2)c1	24.2% (not active)
COc1ccc(C2(C(=O)Nc3ccc(Br)cc3)CCCC2)cc1	11.1% (not active)
COc1nc2ccc(Br)cc2cc1[C@@H](c1ccccc1)[C@@](O)(CCN(C)C)c1cccc2ccccc12 [BEDAQUILINE]	56.3% (not active)
Cc1cc(C(=O)Nc2ccc(-c3ccccc3)cc2)no1	35.7% (not active)
COc1ccc(C(=N)N)cc1-c1cn(-c2ccc(C(=N)N)cc2)nn1	22.8% (not active)
COc1ccc(-c2onc(C(F)(F)F)c2-c2ccc(Cl)cc2)c(O)c1	45.5% (not active)
Cc1cc(O)nc(-n2nc(C)cc2C)n1	3.8% (not active)

SMILES	inhibition at 10 µM
Cc1cc(Cl)c(S(=O)(=O)N2CCCC2)cc1OCC(=O)NC1CCCCC1	11% (not active)
CCCn1nnc(NC(=O)COc2ccc(C3CCCCC3)cc2)n1	33% (not active)
CCOc1ccccc1NC(C)C(=O)Nc1cc(C(F)(F)F)ccc1N1CCOCC1 (stereo not drawn)	20.8% (not active)
Cc1cccc(-c2nc(Nc3ccncn3)c3sccc3n2)n1	34% (not active)
O=C(CCC1CCCCC1)Nc1cccc(-c2nnc(-c3ccco3)o2)c1	30% (not active)
CC(C)n1ncc2c(C(=O)NCC(c3cccs3)N3CCOCC3)cc(-c3ccccc3)nc21 (stereo not drawn)	48.6% (not active)
O=C(Nc1cnc2ccccc2c1)c1cccc(-n2cnnn2)c1	9.8% (not active)
CCc1nc2ccc(C(=O)NCc3ccc4c(c3)OCO4)cn2c1N(C)Cc1cccs1	36% (not active)
O=C(NCCc1ccn(-c2ccccc2)n1)C1CCCCC1	6.2% (not active)
Cc1ccc(-c2nc(CN(Cc3ccccn3)C(C)C)cs2)o1	26.7% (not active)
CC(C)(C)n1nc(-c2ccccc2)c2c(N)ncnc21	55.1% (not active)
O=C(Nc1ccc(N2CCNCC2)cc1)c1ccn2ncc(-c3cccc(Cl)c3)c2n1	18.8% (not active)
CC(C)=CCC/C(C)=C\CNCCNC1C2CC3CC(C2)CC1C3 (stereo not drawn)	20.2% (not active)
O=C1O[C@@H](COc2ccon2)CN1c1cc(F)c(C2=CCN(Cc3ccccc3)CC2)c(F)c1	4.4% (not active)
N#Cc1ccc(-c2ccc(OCC(N)=O)cc2)cc1	33.5% (not active)
Nc1c2c(nc3sc4c(c13)CCCC4)CCCC2	48.3% (not active)
CN1CCCC1CCO[C@](C)(c1ccccc1)c1ccc(Cl)cc1 (stereo partly drawn)	64.4% (not active)
COc1cccc(-n2nnnc2S(=O)(=O)Cc2ccccc2)c1	85.8% (active)
O=C(C1CCN(c2nnc(-n3cccc3)s2)CC1)N1CCC(Cc2ccccc2)CC1	31.1% (not active)
CN(C)c1cc(NC(=O)Nc2ccccc2)c2ccccc2n1	22.3% (not active)
CC1CS(=O)(=O)CCN1/N=C/c1ccc([N+](=O)[O-])o1 (stereo not drawn) [NIFURTIMOX]	11.1% (not active)
CC(=O)N1CCN(c2ccc(Oc3ccc(Cl)cc3O)cc2)CC1	0% (not active)

SMILES	inhibition at 10 µM
Cn1ncc2c(N3CCOCC3)nc(NCCc3c[nH]c4ccccc34)nc21 [TDR79432]	45.9% (not active)
COc1ccc(Nc2ccccc2NC(=O)c2ccc(O)nc2)cc1	24.1% (not active)
N=C(N)c1ccc(-c2cc(-c3ccccc3)on2)cc1	26.5% (not active)
NCC(=O)N1CCn2c(nc(-c3ccccc3)c2Nc2ccc3c(c2)OCO3)C1	8.3% (not active)
COc1ccc2nc(C)cc(OCC(=O)NCc3ccccc3)c2c1	41.1% (not active)
O=C1O[C@@H](CO)CN1c1cc(F)c(C2=CCN(Cc3ccccc3)CC2)c(F)c1	8.3% (not active)
CCS(=O)(=O)N(Cc1ccco1)Cc1cc2ccc(C)cc2nc1O	0% (not active)
CCn1ncc2c(NC3CCOCC3)c(CNC(=O)c3ccnn3C)c(C)nc21	0.8% (not active)
COc1ccc(-c2nn(C(C)C)c3ncnc(N)c23)cc1OC	49.5% (not active)
Cc1cc(Cl)ccc1NC(=O)CCc1ccc(S(=O)(=O)NCC(C)C)cc1	13.9% (not active)
Cc1nn2c(=O)c3c([nH]c2c1-c1ccc(Cl)cc1)CCCC3	30.5% (not active)
Cc1ccc(C(=O)Nc2ccc(S(=O)(=O)O)c3cc(S(=O)(=O)O)cc(S(=O)(=O)O)c23)cc1NC(=O)c1cccc(NC(=O)Nc2cccc(C(=O)Nc3cc(C(=O)Nc4ccc(S(=O)(=O)O)c5cc(S(=O)(=O)O)cc(S(=O)(=O)O)c45)ccc3C)c2)c1 [SURAMIN]	32% (not active)
CN1CCN(c2nccc3nc(-c4ccc(F)c(F)c4)[nH]c23)CC1	35% (not active)
CC(C)(C)OC(=O)N1CCN(c2nccc(-c3ccc(-c4ccc(Cl)cc4)s3)n2)CC1	17% (not active)
Clc1ccc(Cl)c(CO[C@H]2CCCC[C@@H]2n2ccnc2)c1	35.1% (not active)
O=C(Nc1ccc(F)c(-c2nc3cc(-c4ccccc4)cnc3[nH]2)c1)N1CCCC1	49.5% (not active)
CCOc1ccccc1C(=O)Nc1cccc(-c2nc3ncccn3c2C)c1	34.5% (not active)
COc1ccc(-c2nc(-c3cccc(NC(=O)Cc4ccc(F)cc4)c3)no2)cc1OC	35.4% (not active)
c1ccc(Oc2ccc(-c3cc(N4CCNCC4)[nH]n3)cc2)cc1	0% (not active)
COc1ccccc1OCCCCn1c(C2CC2)nc2ccccc21	42.6% (not active)
O=C(Nc1nnc(-c2ccc(Cl)s2)o1)c1ccc(Cl)s1	21.9% (not active)
CS(=O)(=O)c1ccc(C(=O)N(CC2CCCO2)c2nc3ccccc3s2)cc1[N+](=O)[O-] (stereo not drawn)	58.7% (not active)

SMILES	inhibition at 10 µM
O=C(C1CCCCC1)N1CC(=O)N2CCc3ccccc3C2C1 (stereo not drawn) [PRAZIQUANTEL]	41.5% (not active)
Cc1cc(NC(=O)c2ccc(S(=O)(=O)N(Cc3ccccc3)C(C)C)cc2)no1	0% (not active)
COc1ccc(CN2CCOc3ccc(C(C)(O)CN(C)C)cc3C2)cc1C (stereo not drawn)	26.3% (not active)
c1ccc(C[C@@H]2CN(c3nccc(Oc4ccc(-n5ccnc5)cc4)n3)CCN2)cc1	26.4% (not active)
CNC(=O)CNc1nc(-c2ccccn2)nc2scc(-c3ccccc3)c12	22.6% (not active)
Cc1nn2c(O)c3c(nc2c1-c1ccc(F)cc1)CCCC3	30.1% (not active)
CCC(=O)Nc1ccccc1C(=O)Nc1ccccn1	35.7% (not active)
COc1ccc(C2=NN(C3CCCCCC3)C(=O)[C@@H]3CC=CC[C@H]23)cc1OCCCCOc1ccc(-c2nnn[nH]2)cc1	30.2% (not active)
CC(C)(C)n1nc(Cc2cccc3ccccc23)c2c(N)ncnc21	13.8% (not active)
O=C(NCc1ccoc1)N1CCN(Cc2ccc3c(c2)OCO3)CC1	28.7% (not active)
O=[N+]([O-])c1cn2c(n1)OC[C@@H](OCc1ccc(OC(F)(F)F)cc1)C2 [PRETOMANID]	16.1% (not active)
O=C1[C@@H](Oc2ccccc2)[C@@H](c2ccc(Cl)cc2)N1CCn1cnc2c(NCc3ccccc3)ncnc21	0% (not active)
Cc1ccc(Oc2ccc(NC(=O)CNc3ccccc3N3CCCC3=O)cc2)cc1	18.8% (not active)
CC(C)(C)CN1C(=O)C(c2ccccc2)(c2ccccc2)N=C1N	19.2% (not active)
O=C(c1cc2ccccc2o1)N1CCN(Cc2ccc3c(c2)OCO3)CC1	28.6% (not active)
Cc1cc(C2=NOC(c3cc(Cl)c(F)c(Cl)c3)(C(F)(F)F)C2)ccc1C(=O)NCc1ccc2c(c1)C(C)(C)OB2O (stereo not drawn)	47.6% (not active)
COc1ccc(Cn2cnc3c(-c4ccco4)nc(Cl)nc32)cc1	36.9% (not active)
c1ccc(Oc2ccc(-c3cc(N4CCOCC4)[nH]n3)cc2)cc1	22.4% (not active)
O=C(Nc1cccc(Cl)c1)c1cnc(N2CCN(c3ccncc3)CC2)c(Cl)c1	39.6% (not active)
COc1cc(C(F)(F)F)nc2ccc(C)c(N)c12	2.1% (not active)
Cc1ccc(S(=O)(=O)n2cc(-c3ccnc(N)c3)c3cc(Br)cnc32)cc1	53.9% (not active)
O=C(NCc1cc(Cl)cc(Cl)c1)c1c(C(F)(F)F)nc2ccccn12	28.4% (not active)
